Laboratory results: the supplement of paper PMC11061612

Tests used:
Assay in all cases: combination Emax (second highest fraction inhibited in the dose matrix, 72 h); higher = more inhibition; extreme values may be limits of the assay
42-MG-BA (Glioblastoma) = test system: 42-MG-BA (Glioblastoma)
Outline: (§1)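 After 24 hours at 37°C and 5% CO2 in 1536-well plates, cells in DMEM/F12 or RPMI plus 10% FBS received two-drug dose matrices for 72 hours. Viability came from CellTiter-Glo 2.0 luminescence and was scaled as inhibition, anchored at 0 by vehicle wells and at 1 by blank wells. Combination Emax is taken as the second-highest inhibition in the matrix, and Bliss excess as the observed combination effect less EA + EB − EA·EB, with EA and EB the single-agent effects.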

NB10 (Neuroblastoma) = test system: NB10 (Neuroblastoma)
Outline: as §1

[1] = test system: TCCSUP (Bladder Carcinoma)
Outline: as §1

[2] = test system: HO-1-N-1 (Oral Cavity Carcinoma)
Outline: as §1

[3] = test system: OVCA420 (Ovarian Carcinoma)
Outline: as §1

T98G (Glioblastoma) = test system: T98G (Glioblastoma)
Outline: as §1

[4] = test system: Ramos-2G6-4C10 (Burkitt's Lymphoma)
Outline: as §1

AGS (Gastric Carcinoma) = test system: AGS (Gastric Carcinoma)
Outline: as §1

[5] = test system: MDA-MB-361 (Breast Carcinoma)
Outline: as §1

[6] = test system: RO82-W-1 (Thyroid Gland Carcinoma)
Outline: as §1

[7] = test system: TE-9 (Esophageal Squamous Cell Carcinoma)
Outline: as §1

[8] = test system: KYSE-520 (Esophageal Squamous Cell Carcinoma)
Outline: as §1

[9] = test system: DEL (T-Cell Non-Hodgkin's Lymphoma)
Outline: as §1

HOS (Osteosarcoma) = test system: HOS (Osteosarcoma)
Outline: as §1

NOS-1 (Osteosarcoma) = test system: NOS-1 (Osteosarcoma)
Outline: as §1

[10] = test system: MFE-296 (Endometrial Carcinoma)
Outline: as §1

[11] = test system: TE-15 (Esophageal Squamous Cell Carcinoma)
Outline: as §1

[12] = test system: SNU-5 (Gastric Carcinoma)
Outline: as §1

[13] = test system: KURAMOCHI (Ovarian Carcinoma)
Outline: as §1

[14] = test system: LU-135 (Small Cell Lung Carcinoma)
Outline: as §1

| SMILES | combination Emax (42-MG-BA (Glioblastoma)) | combination Emax (NB10 (Neuroblastoma)) | combination Emax [1] | combination Emax [2] | combination Emax [3] | combination Emax (T98G (Glioblastoma)) | combination Emax [4] | combination Emax (AGS (Gastric Carcinoma)) | combination Emax [5] | combination Emax [6] | combination Emax [7] | combination Emax [8] | combination Emax [9] | combination Emax (HOS (Osteosarcoma)) | combination Emax (NOS-1 (Osteosarcoma)) | combination Emax [10] | combination Emax [11] | combination Emax [12] | combination Emax [13] | combination Emax [14] |
| --- | --- | --- | --- | --- | --- | --- | --- | --- | --- | --- | --- | --- | --- | --- | --- | --- | --- | --- | --- | --- |
| CN(C)CCCOc1ccc(-c2ccc3ncc4c(c3c2)n(C2CCOCC2)c(=O)n4C)cn1 [AZD0156] + C=CCn1c(=O)c2cnc(Nc3ccc(N4CCN(C)CC4)cc3)nc2n1-c1cccc(C(C)(C)O)n1 [AZD1775] (first compound max 1 µM, partner max 1 µM) | 0.29 | 0.586 | 0.356 | 0.348 | 0.141 | 0.657 | 0.995 | 0.478 | 0.858 | 0.38 | 0.231 | 0.32 | 1 | 0.24 | 0.247 | 0.258 | 0.454 | 0.56 | 0.678 | 0.644 |
| CN(C)CCCOc1ccc(-c2ccc3ncc4c(c3c2)n(C2CCOCC2)c(=O)n4C)cn1 [AZD0156] + CCN(CCO)CCCOc1ccc2c(Nc3cc(CC(=O)Nc4cccc(F)c4)[nH]n3)ncnc2c1 [AZD2811] (first compound max 1 µM, 7x7, partner max 1 µM) | 0.444 | 0.315 | 0.111 | 0.74 | 0.0163 | 0.33 | 0.528 | 0.238 | 0.456 | 0.308 | 0.0784 | 0.224 | 0.684 | 0.0916 | 0.119 | 0.0192 | 0.0454 | 0.162 | 0.115 | 0.925 |
| CN(C)CCCOc1ccc(-c2ccc3ncc4c(c3c2)n(C2CCOCC2)c(=O)n4C)cn1 [AZD0156] + C[C@@H]1COCCN1C2=NC(=NC(=C2)C3(CC3)[S@](=N)(=O)C)C4=C5C=CNC5=NC=C4 [AZD6738] (first compound max 1 µM, 7x7, partner max 10 µM) | 0.701 | 0.87 | 0.591 | 0.809 | 0.545 | 0.855 | 0.981 | 0.706 | 0.9 | 0.34 | 0.354 | 0.603 | 0.988 | 0.706 | 0.255 | 0.388 | 0.734 | 0.882 | 0.597 | 0.599 |
| CN(C)CCCOc1ccc(-c2ccc3ncc4c(c3c2)n(C2CCOCC2)c(=O)n4C)cn1 [AZD0156] + O=C(c1cc(Cc2n[nH]c(=O)c3ccccc23)ccc1F)N1CCN(C(=O)C2CC2)CC1 [Olaparib] (first compound max 3 µM, partner max 3 µM) | 0.402 | 0.593 | 0.279 | 0.346 | 0.23 | 0.287 | 0.745 | 0.392 | 0.384 | 0.313 | 0.353 | 0.324 | 0.78 | 0.241 | 0.328 | 0.228 | 0.253 | 0.439 | 0.152 | 0.426 |
| C=CCn1c(=O)c2cnc(Nc3ccc(N4CCN(C)CC4)cc3)nc2n1-c1cccc(C(C)(C)O)n1 [AZD1775] + C1CN(CCC1(C(=O)N[C@@H](CCO)C2=CC=C(C=C2)Cl)N)C3=NC=NC4=C3C=CN4 [Capivasertib] (first compound max 3 µM, partner max 3 µM) | 0.733 | 0.892 | 0.787 | 0.781 | 0.59 | 0.785 | 0.99 | 0.976 | 0.851 | 0.471 | 0.816 | 0.598 | 1 | 0.831 | 0.606 | 0.561 | 0.724 | 0.7 | 0.625 | 0.669 |
| C=CCn1c(=O)c2cnc(Nc3ccc(N4CCN(C)CC4)cc3)nc2n1-c1cccc(C(C)(C)O)n1 [AZD1775] + C[C@@H]1COCCN1C2=NC(=NC(=C2)C3(CC3)[S@](=N)(=O)C)C4=C5C=CNC5=NC=C4 [AZD6738] (first compound max 1 µM, partner max 10 µM) | 0.763 | 0.879 | 0.755 | 0.883 | 0.518 | 0.873 | 1 | 0.848 | 0.922 | 0.445 | 0.67 | 0.661 | 1 | 0.911 | 0.622 | 0.659 | 0.761 | 0.934 | 0.743 | 0.751 |
| COc1nnc2ccc(N3CCC(c4ccc(OCCN5CCN(C)C(=O)[C@H]5C)cc4)CC3)nn12 [AZD5153] + CN(CC[C@H](CSC1=CC=CC=C1)NC2=C(C=C(C=C2)S(=O)(=O)NC(=O)C3=CC=C(C=C3)N4CCC(CC4)[C@H](C5=CC=CC=C5C6=CC=C(C=C6)Cl)O)S(=O)(=O)C(F)(F)F)CCO [AZD4320] (first compound max 1 µM, 7x7, partner max 1 µM) | 0.868 |  | 0.297 |  | 0.813 |  |  | 0.918 | 0.814 |  |  | 0.58 | 0.844 |  | 0.936 | 0.31 |  | 0.506 |  | 1 |
| Cc1c2c(nn1C)CSCc1cc(n(C)n1)CSc1cc(c3ccccc3c1)OCCCc1c(C(=O)O)n(C)c3c-2c(Cl)ccc13 [AZD5991] + C1CN(CCC1(C(=O)N[C@@H](CCO)C2=CC=C(C=C2)Cl)N)C3=NC=NC4=C3C=CN4 [Capivasertib] (first compound max 1 µM, 7x7, partner max 3 µM) | 1 | 0.194 | 0.25 | 0.944 | 0.212 | 0.3 | 1 | 0.335 | 0.718 | 0.246 |  | 0.433 | 1 | 0.242 | 0.79 | 0.825 | 0.36 | 0.288 | 0.307 | 0.323 |
| Cc1c2c(nn1C)CSCc1cc(n(C)n1)CSc1cc(c3ccccc3c1)OCCCc1c(C(=O)O)n(C)c3c-2c(Cl)ccc13 [AZD5991] + C=CCn1c(=O)c2cnc(Nc3ccc(N4CCN(C)CC4)cc3)nc2n1-c1cccc(C(C)(C)O)n1 [AZD1775] (first compound max 1 µM, partner max 1 µM) | 0.986 | 0.6 | 0.596 | 0.812 | 0.399 | 0.674 | 1 | 0.781 | 0.899 | 0.506 | 0.366 |  | 1 | 0.432 | 0.982 | 0.585 | 0.548 | 0.565 | 0.796 | 0.581 |
| C[C@@H]1COCCN1c1cc(C2([S@](C)(=N)=O)CC2)nc(-c2ccnc3[nH]ccc23)n1 [AZD6738] + O=C(c1cc(Cc2n[nH]c(=O)c3ccccc23)ccc1F)N1CCN(C(=O)C2CC2)CC1 [Olaparib] (first compound max 10 µM, 7x7, partner max 10 µM) | 0.576 | 0.811 | 0.646 | 0.839 | 0.364 | 0.817 | 0.779 | 0.604 | 0.836 | 0.353 | 0.436 |  | 0.993 | 0.685 | 0.326 | 0.391 | 0.738 | 0.909 | 0.549 | 0.604 |
| CS(=O)(=O)CCNCc1ccc(-c2ccc3ncnc(Nc4ccc(OCc5cccc(F)c5)c(Cl)c4)c3c2)o1 [Lapatinib] + NC1(c2ccc(-c3nc4ccn5c(=O)[nH]nc5c4cc3-c3ccccc3)cc2)CCC1 [MK-2206] (first compound max 10 µM, 7x7, partner max 10 µM) |  | 0.903 |  | 0.963 | 0.884 | 0.908 | 0.954 |  |  | 0.24 | 0.306 |  |  | 0.561 |  | 0.296 | 0.831 | 0.387 | 0.763 |  |
| CCc1c2c(nc3ccc(O)cc13)-c1cc3c(c(=O)n1C2)COC(=O)[C@]3(O)CC [SN-38] + O=C(c1cc(Cc2n[nH]c(=O)c3ccccc23)ccc1F)N1CCN(C(=O)C2CC2)CC1 [Olaparib] (first compound max 0.3 µM, 7x7, partner max 10 µM) | 1 | 0.866 | 0.665 | 1 |  | 0.632 | 0.996 | 0.884 |  | 0.469 | 0.458 |  | 1 | 0.96 | 0.134 | 0.595 | 0.811 |  | 0.651 | 0.843 |
| C[C@@H](c1ccc2nccn2c1)n1nnc2ncc(-c3cnn(C)c3)nc21 [Savolitinib] + CN(CC[C@H](CSC1=CC=CC=C1)NC2=C(C=C(C=C2)S(=O)(=O)NC(=O)C3=CC=C(C=C3)N4CCC(CC4)[C@H](C5=CC=CC=C5C6=CC=C(C=C6)Cl)O)S(=O)(=O)C(F)(F)F)CCO [AZD4320] (first compound max 1 µM, 7x7, partner max 1 µM) | 0.222 |  | 0.194 |  | 0.192 |  |  | 0.377 | 0.114 |  |  | 0.2 | 0.217 |  | 0.506 | 0.2 |  | 1 |  | 1 |
